In patent US7105518B2, “Thiopyrane-4-ones as DNA protein kinase inhibitors” (priority 2001, dated 2006):
Like-named read-outs stand apart in the source and are kept apart here.

Experiments:
[1] = molecular target: T1, Mammalian DNA-PK, isolated from Hela cell nuclear extract (Homo sapiens, UniProt P78527); test: DNA-PK inhibition assay (33P-ATP, phosphocellulose filter, scintillation counting); assay type: biochemical; settings: for inhibition at 1 µM: read-out: inhibition of DNA-PK at 1 μM; for inhibition at 2 µM: read-out: inhibition of DNA-PK at 2 μM, single concentration 2 μM
T1 construct: Mammalian DNA-PK, isolated from Hela cell nuclear extract; endogenous in cells; host or cells: HeLa cell nuclear extract
Protocol: In order to assess the inhibitory action of the compounds against DNA-PK in vitro, the following assay was used.
The total assay volume per well was 40 μl.
After 10 minutes of incubation at 30° C. the reactions were initiated by the addition of Na-ATP (50 μM final), ^33P-γATP and a 30mer double stranded DNA oligonucleotide (10 ng/μl) in a volume of 10 μl. Designated positive and negative reaction wells were done in combination with compound wells (unknowns) in order to calculate % enzyme activities. The plates were then shaken for 2 minutes and incubated at 30° C. for 45 minutes.
Following the incubation, the reactions were quenched by the addition of 50 μl 30% acetic acid to each well. The plates were then shaken for 5 minutes and the contents of each plate (80 μl from each well) transferred over to a 96 well Polyfiltronics filtration plate, containing P81-phosphocellulose membrane (TRADE MARK)(Whatman, UK). The solutions were vacuum pumped through the membrane and each well membrane washed four times using 300 μl of 15% acetic acid. The well membranes were then air dried and 20 μl of scintillant was added to each well.
The plates were transferred to a TopCount NXT (TRADE MARK) (Packard, UK) for scintillation counting. Values recorded are counts per minute (cpm) following a 1 minute counting time for each well.
The enzyme activity for each compound is then calculated using the following equation: […]
In Table 1 below, the results are IC50 values (the concentration at which 50% of the enzyme activity is inhibited). These are determined over a range of different concentrations, normally from 10 μM down to 0.01 μM. Such IC50 values are used as comparative values to identify increased compound potencies.

[2] = molecular target: T2, ATM protein immunoprecipitated from HeLa cell nuclear extract (Homo sapiens, UniProt Q13315); test: ATM inhibition assay (GSTp53N66 serine 15 phosphorylation, chemiluminescence); assay type: biochemical; settings: concentrations between 100 and 1 μM
T2 construct: ATM protein was immunoprecipitated from HeLa cell nuclear extract; endogenous in cells; host or cells: HeLa cell nuclear extract (immunoprecipitate)
T2 sequence (Q13315 whole entry): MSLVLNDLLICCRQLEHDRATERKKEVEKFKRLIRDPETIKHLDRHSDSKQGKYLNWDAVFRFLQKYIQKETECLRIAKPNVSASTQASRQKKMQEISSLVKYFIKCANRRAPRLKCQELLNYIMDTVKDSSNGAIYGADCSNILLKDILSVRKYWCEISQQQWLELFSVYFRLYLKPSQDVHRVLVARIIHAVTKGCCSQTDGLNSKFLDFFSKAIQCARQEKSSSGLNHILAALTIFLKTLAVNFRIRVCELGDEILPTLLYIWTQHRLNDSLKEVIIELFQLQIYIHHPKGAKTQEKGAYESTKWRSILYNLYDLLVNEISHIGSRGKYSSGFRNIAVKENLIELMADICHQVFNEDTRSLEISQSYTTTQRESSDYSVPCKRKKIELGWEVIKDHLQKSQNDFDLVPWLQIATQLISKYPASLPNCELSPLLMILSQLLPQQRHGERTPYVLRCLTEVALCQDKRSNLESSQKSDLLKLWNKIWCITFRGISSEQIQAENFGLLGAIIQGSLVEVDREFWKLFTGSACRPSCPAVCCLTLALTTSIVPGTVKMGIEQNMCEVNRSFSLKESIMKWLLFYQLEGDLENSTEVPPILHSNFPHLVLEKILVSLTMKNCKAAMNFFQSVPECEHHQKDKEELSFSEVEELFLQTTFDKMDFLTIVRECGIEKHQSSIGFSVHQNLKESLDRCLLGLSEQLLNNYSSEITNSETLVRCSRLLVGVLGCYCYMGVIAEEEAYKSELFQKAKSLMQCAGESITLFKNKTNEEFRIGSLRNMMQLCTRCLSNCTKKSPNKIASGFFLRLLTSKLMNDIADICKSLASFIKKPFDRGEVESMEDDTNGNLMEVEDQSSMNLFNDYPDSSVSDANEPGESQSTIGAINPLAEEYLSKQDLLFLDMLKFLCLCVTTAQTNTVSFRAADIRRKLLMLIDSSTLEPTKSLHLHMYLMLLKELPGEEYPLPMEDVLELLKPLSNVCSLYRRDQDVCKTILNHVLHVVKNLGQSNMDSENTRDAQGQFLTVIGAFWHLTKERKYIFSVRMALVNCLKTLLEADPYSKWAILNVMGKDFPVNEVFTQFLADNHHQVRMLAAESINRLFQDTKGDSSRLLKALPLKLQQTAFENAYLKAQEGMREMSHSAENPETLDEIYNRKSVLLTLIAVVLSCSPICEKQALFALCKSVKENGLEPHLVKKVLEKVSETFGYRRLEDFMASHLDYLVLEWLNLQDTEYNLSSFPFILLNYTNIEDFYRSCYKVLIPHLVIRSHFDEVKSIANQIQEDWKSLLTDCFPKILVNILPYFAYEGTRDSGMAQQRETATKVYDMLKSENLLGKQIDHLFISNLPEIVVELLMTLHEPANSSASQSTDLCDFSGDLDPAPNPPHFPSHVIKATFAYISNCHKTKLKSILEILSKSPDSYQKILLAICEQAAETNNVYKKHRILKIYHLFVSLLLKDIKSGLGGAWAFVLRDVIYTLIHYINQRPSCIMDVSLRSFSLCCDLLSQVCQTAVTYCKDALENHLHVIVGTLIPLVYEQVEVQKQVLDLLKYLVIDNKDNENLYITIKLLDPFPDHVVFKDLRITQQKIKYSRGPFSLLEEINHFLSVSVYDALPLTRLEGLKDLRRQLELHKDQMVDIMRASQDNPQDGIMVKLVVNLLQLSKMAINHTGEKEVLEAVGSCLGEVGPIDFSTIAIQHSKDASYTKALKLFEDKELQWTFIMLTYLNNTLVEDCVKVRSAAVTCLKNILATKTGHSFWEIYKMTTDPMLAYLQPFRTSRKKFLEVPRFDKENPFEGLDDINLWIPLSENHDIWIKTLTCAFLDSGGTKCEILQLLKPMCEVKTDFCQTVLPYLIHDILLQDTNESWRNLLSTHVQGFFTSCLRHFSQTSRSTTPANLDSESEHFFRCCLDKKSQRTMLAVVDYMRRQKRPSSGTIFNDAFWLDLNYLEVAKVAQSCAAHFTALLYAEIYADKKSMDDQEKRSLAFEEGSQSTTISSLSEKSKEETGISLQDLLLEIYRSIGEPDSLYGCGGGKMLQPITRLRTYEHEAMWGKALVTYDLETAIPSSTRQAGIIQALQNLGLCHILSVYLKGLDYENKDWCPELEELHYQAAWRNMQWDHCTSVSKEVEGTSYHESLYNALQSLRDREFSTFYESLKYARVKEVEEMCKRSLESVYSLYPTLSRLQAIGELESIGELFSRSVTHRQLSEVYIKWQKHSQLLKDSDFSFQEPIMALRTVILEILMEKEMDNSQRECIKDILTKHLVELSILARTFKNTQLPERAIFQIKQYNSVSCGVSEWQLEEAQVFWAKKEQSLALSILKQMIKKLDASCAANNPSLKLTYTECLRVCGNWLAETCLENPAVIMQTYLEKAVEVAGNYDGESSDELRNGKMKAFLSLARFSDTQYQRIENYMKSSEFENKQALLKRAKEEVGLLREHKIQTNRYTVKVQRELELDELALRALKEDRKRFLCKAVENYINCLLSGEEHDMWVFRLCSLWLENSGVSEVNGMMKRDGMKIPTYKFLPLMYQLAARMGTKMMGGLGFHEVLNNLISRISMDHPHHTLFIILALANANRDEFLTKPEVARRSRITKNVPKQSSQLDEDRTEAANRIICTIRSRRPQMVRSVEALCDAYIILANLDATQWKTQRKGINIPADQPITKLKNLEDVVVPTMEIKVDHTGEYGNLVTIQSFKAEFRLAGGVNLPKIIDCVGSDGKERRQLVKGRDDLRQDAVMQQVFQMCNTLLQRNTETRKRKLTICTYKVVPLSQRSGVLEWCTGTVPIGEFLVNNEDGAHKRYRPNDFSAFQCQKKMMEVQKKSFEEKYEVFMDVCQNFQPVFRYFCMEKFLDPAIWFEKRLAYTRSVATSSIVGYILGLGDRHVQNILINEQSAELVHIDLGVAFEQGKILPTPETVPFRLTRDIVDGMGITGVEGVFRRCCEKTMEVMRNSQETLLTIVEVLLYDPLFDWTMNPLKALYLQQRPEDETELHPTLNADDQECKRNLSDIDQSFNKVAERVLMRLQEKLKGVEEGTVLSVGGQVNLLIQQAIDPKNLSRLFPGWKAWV
Protocol: In order to assess the inhibitory action of the compounds against ATM in vitro, the following assay was used to determine IC50 values.
ATM protein was immunoprecipitated from HeLa cell nuclear extract using rabbit polyclonal antisera raised to the C-terminal ˜500 amino-acid residues of the human ATM protein. […] 10 μl of immunoprecipitated ATM in Buffer C (50 mM Hepes, pH 7.4, 6 mM MgCl2, 150 mM NaCl, 0.1 mM sodium orthovanadate, 4 mM MnCl2, 0.1 mM dithiothreitol, 10% glycerol) was added to 32.5 μl of buffer C containing 1 μg of the ATM substrate GSTp53N66 in a V-bottomed 96 well polypropylene plate. The GSTp53N66 substrate is the amino terminal 66 amino acid residues of human wild type p53 fused to glutathione S-transferase. […] Varying concentrations of inhibitor were then added. […] After 10 minutes of incubation at 37° C., the reactions were initiated by the addition of 5 μl of 50 μM Na-ATP. After 1 h with shaking at 37° C., 150 μl of phosphate buffered saline (PBS) was added to the reaction and the plate centrifuged at 1500 rpm for 10 minutes. 5 μl of the reaction was then transferred to a 96 well opaque white plate containing 45 μl of PBS to allow the GSTp53N66 substrate to bind to the plate wells. The plate was covered and incubated at room temperature for 1 h with shaking before discarding the contents. The plate wells were washed twice by the addition of PBS prior to the addition of 3% (w/v) bovine serum albumin (BSA) in PBS. The plate was incubated at room temperature for 1 h with shaking before discarding the contents and washing twice with PBS. To the wells, 50 μl of a 1:10, 000 dilution of primary phosphoserine-15 antibody (Cell Signaling Technology, #9284L) in 3% BSA/PBS was added to detect the phosphorylation event on the serine 15 residue of p53 elicited by the ATM kinase. […] The wells were then washed four times with PBS before the addition of chemiluminescence reagent (NEN Renaissance, NEL105). The plate was then shaken briefly, covered with a transparent plate seal and transferred to a TopCount NXT for chemiluminescent counting. Counts per second, following a one second counting time, were recorded for each reaction. The inhibition of ATM activity by compounds was calculated as described above for the DNA-PK assay.
(§1) The selectivity was determined by the following equation: […]

PI 3-kinase = settings: literature, stated the same as for DNA-PK; cited from earlier work
[3] = tested on: mammalian cells in culture; settings: literature; cited from earlier work
[4] = molecular target: T3, Baculoviral recombinant GST-fused PI 3-kinase (p110α/p85α) (Homo sapiens, UniProt P42336); test: PI 3-kinase inhibition assay; assay type: biochemical
T3 construct: GST; made in house; host or cells: Sf9 insect cells (baculovirus)
T3 sequence (P42336 whole entry, species assumed, the tested form may be a part): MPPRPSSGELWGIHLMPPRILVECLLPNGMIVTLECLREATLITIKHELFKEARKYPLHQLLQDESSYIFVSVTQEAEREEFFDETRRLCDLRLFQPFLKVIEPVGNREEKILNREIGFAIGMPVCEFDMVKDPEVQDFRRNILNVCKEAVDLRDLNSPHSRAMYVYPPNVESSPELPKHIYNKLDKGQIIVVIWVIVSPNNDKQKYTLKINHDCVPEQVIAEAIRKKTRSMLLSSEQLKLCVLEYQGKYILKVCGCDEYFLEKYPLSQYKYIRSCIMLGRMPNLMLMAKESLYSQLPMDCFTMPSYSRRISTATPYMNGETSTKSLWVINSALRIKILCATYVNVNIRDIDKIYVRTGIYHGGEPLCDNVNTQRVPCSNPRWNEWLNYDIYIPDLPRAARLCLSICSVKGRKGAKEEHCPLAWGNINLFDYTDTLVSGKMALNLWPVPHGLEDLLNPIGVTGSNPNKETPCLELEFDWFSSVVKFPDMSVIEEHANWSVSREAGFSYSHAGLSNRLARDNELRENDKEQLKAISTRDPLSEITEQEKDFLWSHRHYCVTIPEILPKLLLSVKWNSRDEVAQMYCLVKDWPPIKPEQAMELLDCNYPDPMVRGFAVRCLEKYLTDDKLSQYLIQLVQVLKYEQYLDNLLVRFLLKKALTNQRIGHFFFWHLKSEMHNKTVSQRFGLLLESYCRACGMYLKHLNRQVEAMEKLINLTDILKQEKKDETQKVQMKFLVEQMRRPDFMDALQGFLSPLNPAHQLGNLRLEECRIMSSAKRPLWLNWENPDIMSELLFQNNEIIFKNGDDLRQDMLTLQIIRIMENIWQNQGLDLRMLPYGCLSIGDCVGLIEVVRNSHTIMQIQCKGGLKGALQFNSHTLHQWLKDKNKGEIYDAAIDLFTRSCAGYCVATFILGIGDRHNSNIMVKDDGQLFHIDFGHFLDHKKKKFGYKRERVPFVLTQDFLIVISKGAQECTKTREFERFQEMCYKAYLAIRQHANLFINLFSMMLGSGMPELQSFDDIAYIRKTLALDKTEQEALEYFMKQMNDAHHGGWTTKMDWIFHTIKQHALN
T3 sequence (P27986 whole entry partner, species assumed, the tested form may be a part): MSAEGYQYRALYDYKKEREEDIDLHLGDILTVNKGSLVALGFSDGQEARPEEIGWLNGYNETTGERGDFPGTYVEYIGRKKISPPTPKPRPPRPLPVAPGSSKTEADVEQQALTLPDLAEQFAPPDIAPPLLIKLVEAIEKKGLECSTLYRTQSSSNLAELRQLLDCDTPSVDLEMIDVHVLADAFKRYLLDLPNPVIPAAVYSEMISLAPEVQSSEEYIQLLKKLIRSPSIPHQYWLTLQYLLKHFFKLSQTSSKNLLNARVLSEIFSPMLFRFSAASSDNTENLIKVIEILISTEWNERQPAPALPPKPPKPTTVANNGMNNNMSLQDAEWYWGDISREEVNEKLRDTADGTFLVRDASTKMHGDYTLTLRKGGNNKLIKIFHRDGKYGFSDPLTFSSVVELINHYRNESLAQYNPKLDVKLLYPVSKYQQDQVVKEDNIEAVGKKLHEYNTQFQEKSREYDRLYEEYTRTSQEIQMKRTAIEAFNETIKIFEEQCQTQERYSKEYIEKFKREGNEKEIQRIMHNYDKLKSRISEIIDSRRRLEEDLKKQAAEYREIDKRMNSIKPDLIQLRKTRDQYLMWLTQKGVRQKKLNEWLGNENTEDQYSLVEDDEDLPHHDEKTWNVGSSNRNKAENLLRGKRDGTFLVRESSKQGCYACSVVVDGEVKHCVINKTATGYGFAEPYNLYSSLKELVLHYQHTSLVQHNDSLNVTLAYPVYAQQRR
Protocol: In order to assess the inhibitory action of the compounds against PI 3-kinase in vitro, the following assay was used to determine IC50 values.
PI 3-kinase (1 μl) was diluted in reaction buffer (89 μl of 50 mM Hepes pH 7.5, 150 mM NaCl, 0.1 mM Sodium Orthovanadate, containing 20 μg of phosphatidylinositol) and varying concentrations of inhibitor compound added. […] Reactions were incubated for a further 20 minutes at 37° C., before quenching with the addition of 400 μl of chloroform/methanol (1:1). Reactions were acidified by the addition of 200 μl of 1M HCl, before separation of the organic and aqueous phases by centrifugation at 10,000 g for 30 seconds. The organic phase was transferred to a fresh tube and washed twice with 150 μl of 1M hydrochloric acid/methanol (1:1), discarding the aqueous phase. The washed reaction product was then placed in a white 96-well plate with 100 μl of scintillation fluid and transferred to a TopCount NXT for scintillation counting. Counts per minute, following a one minute counting time, were recorded for each reaction. The inhibition of PI 3-kinase activity by compounds was calculated as described above for the DNA-PK assay.
as §1

| SMILES | IC50 [1] [µM] | inhibition at 1 µM ([1]; single concentration 1 μM) [%] | inhibition at 2 µM [1] [%] | also measured |
| --- | --- | --- | --- | --- |
| CC(=O)c1cccc(-c2cccc(-c3cc(=O)cc(N4CCOCC4)s3)c2)c1 [Compound 33] | ≤ 2 | – | ≥ 50 | inhibition at 1 µM [1]: ≥ 10% |
| O=c1cc(-c2ccc(-c3cccc(O)c3)cc2)sc(N2CCOCC2)c1 [Compound 14] | ≤ 2 | ≥ 10 | ≥ 50 | – |
| CC(C)(C)c1ccc(-c2cc(=O)cc(N3CCOCC3)s2)cc1 [Compound 2, 2-(4-tert-Butyl-phenyl)-6-morpholin-4-yl-thiopyran-4-one] | – | – | – | IC50 [4]: 40 µM; IC50 [2]: > 100 µM; melting point: 172 to 173 °C |
| O=c1cc(-c2cccc(-c3ccc(CO)cc3)c2)sc(N2CCOCC2)c1 [Compound 41] | ≤ 2 | – | ≥ 50 | inhibition at 1 µM [1]: ≥ 10% |
| O=c1cc(-c2cccc(Br)c2)sc(N2CCOCC2)c1 [Compound 6, 6-(3-Bromophenyl)-2-morpholin-4-yl-thiopyran-4-one] | – | – | – | melting point: 181 to 182 °C |
| O=c1cc(-c2cccc(-c3cccc(CO)c3)c2)sc(N2CCOCC2)c1 [Compound 40] | ≤ 2 | – | ≥ 50 | inhibition at 1 µM [1]: ≥ 10% |
| O=c1cc(-c2ccc(Br)cc2)sc(N2CCOCC2)c1 [Compound 5, 6-(4-Broinophenyl)-2-morpholin-4-yl-thiopyran-4-one] | – | – | – | melting point: 214 to 215 °C |
| NCc1ccc(-c2cccc(-c3cc(=O)cc(N4CCOCC4)s3)c2)cc1 [Compound 46] | ≤ 2 | – | ≥ 50 | inhibition at 1 µM [1]: ≥ 10% |
| CC(=O)Nc1cccc(-c2cccc(-c3cc(=O)cc(N4CCOCC4)s3)c2)c1 [Compound 31] | – | ≥ 10 | ≥ 50 | – |
| O=c1cc(-c2ccc(Cl)cc2)sc(N2CCOCC2)c1 [Compound 4, 2-(4—Chloro-phenyl)-6-morpholin-4-yl-thiopyran-4-one] | – | – | – | IC50 [4]: 5 µM; IC50 [2]: > 100 µM |
| O=c1cc(-c2cccc(-c3cccc(O)c3)c2)sc(N2CCOCC2)c1 [Compound 42] | – | ≥ 10 | ≥ 50 | – |
| COc1ccc(-c2cc(=O)cc(N3CCOCC3)s2)cc1 [Compound 3, 2-(4-Methoxy-phenyl)-6-morpholin-4-yl-thiopyran-4-one] | – | – | – | IC50 [4]: 8 µM; IC50 [2]: > 100 µM |
| O=c1cc(-c2ccccc2)sc(N2CCOCC2)c1 [Compound 1, 2-Morpholin-4-yl-6-phenyl-thiopyran-4-one] | – | – | – | IC50 [4]: 10 µM; IC50 [2]: > 100 µM; melting point: 160 to 161 °C |
| O=c1cc(-c2cccc(-c3csc4ccccc34)c2)sc(N2CCOCC2)c1 [Compound 64] | ≤ 2 | ≥ 10 | ≥ 50 | – |
| O=c1cc(-c2cccc(-c3cccc(-c4ccccc4)c3)c2)sc(N2CCOCC2)c1 [Compound 35] | ≤ 2 | – | ≥ 50 | inhibition at 1 µM [1]: ≥ 10% |
| O=c1cc(-c2cccc(-c3ccccc3-c3ccccc3)c2)sc(N2CCOCC2)c1 [Compound 30] | ≤ 2 | – | ≥ 50 | inhibition at 1 µM [1]: ≥ 10% |

Now from value to compound, other results behind:

| IC50 [1] [µM] | inhibition at 1 µM ([1]; single concentration 1 μM) [%] | inhibition at 2 µM [1] [%] | SMILES | also measured |
| --- | --- | --- | --- | --- |
| ≤ 2 | ≥ 10 | ≥ 50 | O=c1cc(-c2ccc(-c3cccs3)cc2)sc(N2CCOCC2)c1 [Compound 57] | – |
| 1.5 | – | – | O=c1cc(N2CCOCC2)oc2c(-c3ccccc3)cccc12 [LY294002, reference compound] | IC50 [2]: > 100 µM; IC50 (PI 3-kinase): ~1 µM; sensitisation of cells to the effects of IR [3]: weakly sensitise cells to the effects of IR |
| ≤ 2 | ≥ 10 | ≥ 50 | Nc1cccc(-c2cccc(-c3cc(=O)cc(N4CCOCC4)s3)c2)c1 [Compound 49] | – |
| – | ≥ 10 | ≥ 50 | O=c1cc(-c2ccc(-c3cccc4ccccc34)cc2)sc(N2CCOCC2)c1 [Compound 59] | – |
| ≤ 2 | ≥ 10 | ≥ 50 | O=c1cc(-c2cccc(-c3ccc(O)cc3)c2)sc(N2CCOCC2)c1 [Compound 43] | – |
| ≤ 2 | ≥ 10 | ≥ 50 | O=c1cc(-c2cccc(-c3cccc4ccccc34)c2)sc(N2CCOCC2)c1 [Compound 69] | – |
| ≤ 2 | ≥ 10 | ≥ 50 | Nc1ccc(-c2cccc(-c3cc(=O)cc(N4CCOCC4)s3)c2)cc1 [Compound 48] | – |
| ≤ 2 | ≥ 10 | ≥ 50 | O=Cc1sccc1-c1cccc(-c2cc(=O)cc(N3CCOCC3)s2)c1 [Compound 70] | – |
| ≤ 2 | ≥ 10 | ≥ 50 | CC(=O)Nc1ccccc1-c1cccc(-c2cc(=O)cc(N3CCOCC3)s2)c1 [Compound 51] | – |
| ≤ 2 | ≥ 10 | ≥ 50 | Cc1ccc(-c2cccc(-c3cc(=O)cc(N4CCOCC4)s3)c2)c2ccccc12 [Compound 63] | – |
